# Reference: patent publication US20060147400A1, “Composition, especially a cosmetic composition, containing at least one alkyl para-hydroxybenzoate and at least one lipophilic amino acid derivative” (L'Oreal, priority 2002, published 2006)
# Test: Solubility of alkyl para-hydroxybenzoates in a solubilizer/solvent (80° C., stirring one hour, dissolution monitored over time)
# Type: physicochemical
# Details: comparative; same amount (60% by weight) in water, conventionally used solvent
# Procedure: Protocol: The alkyl para-hydroxybenzoates are weighed out and placed in a hermetic pill bottle. The required amount of lipophilic amino acid derivative (solubilizer) is added. The suspension is brought to 80° C. and stirred. by magnetic stirring for one hour. The dissolution or non-dissolution of the alkyl para-hydroxybenzoate and its change over time are then monitored. The insolubility of the alkyl para-hydroxybenzoate in the solubilizer is characterized macroscopically by a precipitate or just a cloudy solution, and microscopically by the presence of crystals.
structure (smiles),measurement,value
CCCOC(=O)c1ccc(O)cc1 [propyl para-hydroxybenzoate],dissolution or non-dissolution in water,formation of insoluble crystals and a paste
